Results on 20 molecules are retold here after patent publication US9840498B2, “Substituted quinazolin-4-one derivatives” (NOVARTIS AG, priority 2013, dated 2017).

Molecules are shown by their SMILES. pIC50: −log10 of the molar value.

In the assay the target is human phosphoinositide-3 kinase (PI3K) delta (Homo sapiens (Human), UniProt O00329). Nature of the assay: PI3K-mediated Akt 1/2 (S473) phosphorylation in Rat-1 cells overexpressing PI3K delta. In kind it is cell-based. The note with it: cellular assay, p-AKT(Ser473), read-out: Cell PI3K delta IC50. The procedure: 2.1 Phosphoinositide-3 kinase (PI3K)-Mediated Akt 1/2 (S473) Phosphorylation in Rat-1 Cells
Sequence of human phosphoinositide-3 kinase (PI3K) delta (O00329 whole entry): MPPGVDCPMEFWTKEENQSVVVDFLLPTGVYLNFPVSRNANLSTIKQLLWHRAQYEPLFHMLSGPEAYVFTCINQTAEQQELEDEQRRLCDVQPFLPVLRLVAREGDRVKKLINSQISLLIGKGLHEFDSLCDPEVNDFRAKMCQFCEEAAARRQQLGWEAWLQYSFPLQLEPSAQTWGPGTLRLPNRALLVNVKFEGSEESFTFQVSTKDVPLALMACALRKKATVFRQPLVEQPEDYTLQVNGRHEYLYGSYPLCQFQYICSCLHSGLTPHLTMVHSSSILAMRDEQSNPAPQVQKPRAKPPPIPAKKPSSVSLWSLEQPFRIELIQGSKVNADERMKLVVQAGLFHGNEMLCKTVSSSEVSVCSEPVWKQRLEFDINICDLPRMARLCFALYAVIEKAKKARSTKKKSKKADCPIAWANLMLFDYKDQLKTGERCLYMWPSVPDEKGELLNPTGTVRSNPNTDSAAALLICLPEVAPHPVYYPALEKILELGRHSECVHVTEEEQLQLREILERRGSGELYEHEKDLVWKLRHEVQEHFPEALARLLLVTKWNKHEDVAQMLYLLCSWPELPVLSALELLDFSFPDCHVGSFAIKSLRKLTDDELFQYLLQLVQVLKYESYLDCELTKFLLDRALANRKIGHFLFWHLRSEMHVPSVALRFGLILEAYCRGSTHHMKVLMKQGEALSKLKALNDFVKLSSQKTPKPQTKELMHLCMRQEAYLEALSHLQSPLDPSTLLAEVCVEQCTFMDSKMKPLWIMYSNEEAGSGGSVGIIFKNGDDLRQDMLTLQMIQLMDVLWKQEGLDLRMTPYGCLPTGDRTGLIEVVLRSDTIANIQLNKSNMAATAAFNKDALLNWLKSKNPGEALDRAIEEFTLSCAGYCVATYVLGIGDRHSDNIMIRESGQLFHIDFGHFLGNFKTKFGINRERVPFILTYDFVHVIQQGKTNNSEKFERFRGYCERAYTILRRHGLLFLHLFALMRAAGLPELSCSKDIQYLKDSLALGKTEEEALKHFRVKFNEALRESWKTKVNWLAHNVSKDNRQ
Sequence of human phosphoinositide-3 kinase (PI3K) delta (Q63787 whole entry partner): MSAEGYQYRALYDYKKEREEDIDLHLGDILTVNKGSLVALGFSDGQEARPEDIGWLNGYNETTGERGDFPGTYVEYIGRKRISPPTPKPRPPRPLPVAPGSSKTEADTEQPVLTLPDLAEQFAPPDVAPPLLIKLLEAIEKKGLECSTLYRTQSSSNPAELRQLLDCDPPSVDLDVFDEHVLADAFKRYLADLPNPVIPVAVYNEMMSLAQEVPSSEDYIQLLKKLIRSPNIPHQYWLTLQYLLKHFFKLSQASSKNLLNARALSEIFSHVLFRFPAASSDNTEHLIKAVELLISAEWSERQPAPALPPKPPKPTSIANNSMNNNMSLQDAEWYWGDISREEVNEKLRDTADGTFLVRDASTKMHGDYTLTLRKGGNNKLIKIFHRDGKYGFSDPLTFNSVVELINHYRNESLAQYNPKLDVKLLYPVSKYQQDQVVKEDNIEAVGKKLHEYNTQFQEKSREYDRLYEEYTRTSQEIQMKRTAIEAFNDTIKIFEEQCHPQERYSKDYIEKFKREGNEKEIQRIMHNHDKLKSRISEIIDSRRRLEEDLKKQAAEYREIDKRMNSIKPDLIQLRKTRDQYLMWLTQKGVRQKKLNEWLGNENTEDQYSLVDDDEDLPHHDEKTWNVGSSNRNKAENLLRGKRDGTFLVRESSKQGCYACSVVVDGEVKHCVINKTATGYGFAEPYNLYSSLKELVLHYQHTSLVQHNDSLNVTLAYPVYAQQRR
Rat-1 cells stably overexpressing a myristoylated form of the catalytic subunit of human phosphoinositide-3 kinase (PI3K) alpha, beta or delta were plated in 384-well plates at a density of 7500 (PI3K alpha), 6200 (PI3K beta), or 4000 (PI3K delta) cells in 30 ul complete growth medium (Dulbecco's modified Eagle's medium (DMEM high glucose) supplemented with 10% (v/v) fetal bovine serum, 1% (v/v) MEM non essential amino acids, 10 mM HEPES, 2 mM L-glutamine, 10 μg/mL puromycin and 1% (v/v) Penicillin/Streptomycin) and were incubated at […]/5% CO2/95% humidity for 24 h. Compounds were diluted in 384-well compound plates (compound master plates), to obtain 8-point serial dilutions for 40 test compounds in 90% DMSO, as well as 4 reference compounds plus 16 high controls and 16 low (inhibited) controls. Predilution plates were prepared by dispensing pipetting 250 nl of compound solutions into 384-well polypropylen plates (daugther plates), using a Hummingwell nanoliter dispenser. Compounds were prediluted by the addition of 49.75 ul complete growth medium. 10 ul of prediluted compound solution were transferred to the cell plate using a 384-well pipettor, resulting in a final DMSO concentration of 0.11%. Cells were incubated for 1 h at […]/5% CO2/95% humidity. The supernatant was removed, the cells were lysed in 20 ul of lysis buffer for AlphaScreen® SureFire® detection.
For detection of p-AKT(Ser473), the SureFire® p-Akt 1/2 (Ser473) Assay Kit (PerkinElmer, U.S.A.) was used. 5 ul of cell lysate was transferred to 384-well low volume Proxiplates for detection using a 384-well pipettor. Addition of AlphaScreen® SureFire® reagents was done according to the manufacturer's protocol. First, 5 ul of reaction buffer plus activation buffer mix containing AlphaScreen® acceptor beads was added, the plate was sealed, and incubated on a plate shaker for 2 hours at room temperature. Second, 2 ul of dilution buffer containing AlphaScreen® donor beads was added, and the plate was incubated on plate shaker as above for a further 2 hours. The plate was read on an AlphaScreen® compatible plate reader, using standard AlphaScreen® settings. Alternatively, p-AKT(Ser473) was detected with the CisBio HTRF Assay Kit: As positive control, 0.9 mM of 1-(3-(trifluoromethyl)-4-(piperazin-1-yl)phenyl)-8-(6-methoxypyridin-3-yl)-3-methyl-1H-imidazo[4,5-c]quinolin-2(3H)-one maleic acid salt in 90% (v/v) DMSO was added to the compound master plate. For compound testing, the cells were seeded at a density of 4000 (Rat-1_PI3Kdelta), 8000 (Rat-1_PI3Kalpha), or 6500 (Rat-1_PI3Kbeta) cells in 30 ul complete growth medium into 384-well plates, with a plastic surface promoting the adhesion of cells and their growth (assay plates) and were grown at 37° C./5% CO2/90% humidity for 24 h. Some 10 ul of the compound predilutions from the daughter plate were then transferred to the cells. After treatment with compound for 1 h, medium was removed and cells were lysed by the addition of 20 ul lysis buffer supplemented with blocking buffer. Detection of p-AKT(Ser473) was performed with the HTRF pAKT (Ser473) assay kit according to the manufacturer's instructions using 16 ul of cell lysate in a total detection volume of 20 ul.
On to `Cc1nc(N)nc(N2C[C@@H](O)C[C@H]2c2nc3ccc(F)c(-c4cnn(C)c4)c3c(=O)n2-c2ccccc2)c1C#N` [Example 1, 2-Amino-4-((2S,4S)-2-(6-fluoro-5-(1-methyl-1H-pyrazol-4-yl)-4-oxo-3-phenyl-3,4-dihydroquinazolin-2-yl)-4-hydroxypyrrolidin-1-yl)-6-methylpyrimidine-5-carbonitrile], for which the pIC50 is 8.52.
Under `Cn1cc(-c2cccc3nc([C@@H]4CCCN4c4ncnc(N)c4C#N)n(-c4ccccc4)c(=O)c23)cn1` [Example 2, (S)-4-Amino-6-(2-(5-(1-methyl-1H-pyrazol-4-yl)-4-oxo-3-phenyl-3,4-dihydroquinazolin-2-yl)pyrrolidin-1-yl)pyrimidine-5-carbonitrile] stands 8.52.
`COc1ncc(-c2cccc3nc([C@@H]4CCCN4c4ncnc(N)c4C#N)n(-c4ccccc4)c(=O)c23)cn1` [Example 3, (S)-4-Amino-6-(2-(5-(2-methoxypyrimidin-5-yl)-4-oxo-3-phenyl-3,4-dihydroquinazolin-2-yl)pyrrolidin-1-yl)pyrimidine-5-carbonitrile]: the pIC50 is 7.96.
The value for `COc1ncc(-c2cccc3nc([C@@H]4CCCN4c4nc(N)nc(C)c4C#N)n(-c4ccccc4)c(=O)c23)cn1` [Example 4, (S)-2-Amino-4-(2-(5-(2-methoxypyrimidin-5-yl)-4-oxo-3-phenyl-3,4-dihydroquinazolin-2-yl)pyrrolidin-1-yl)-6-methylpyrimidine-5-carbonitrile] was over 8.52.
For `Cn1cc(-c2c(F)ccc3nc([C@@H]4CCCN4c4ncnc(N)c4C#N)n(-c4ccccc4)c(=O)c23)cn1` [Example 5, (S)-4-Amino-6-(2-(6-fluoro-5-(1-methyl-1H-pyrazol-4-yl)-4-oxo-3-phenyl-3,4-dihydroquinazolin-2-yl)pyrrolidin-1-yl)pyrimidine-5-carbonitrile], the pIC50 was 8.15.
Under `Cc1nc(N)nc(N2CCC[C@H]2c2nc3ccc(F)c(-c4cnn(C)c4)c3c(=O)n2-c2ccccc2)c1C#N` [Example 6, (S)-2-Amino-4-(2-(6-fluoro-5-(1-methyl-1H-pyrazol-4-yl)-4-oxo-3-phenyl-3,4-dihydroquinazolin-2-yl)pyrrolidin-1-yl)-6-methylpyrimidine-5-carbonitrile] stands 8.30; under `COc1ncc(-c2c(F)ccc3nc([C@@H]4C[C@H](O)CN4c4nc(N)nc(C)c4C#N)n(-c4ccccc4)c(=O)c23)cn1` [Example 7, 2-Amino-4-((2S,4S)-2-(6-fluoro-5-(2-methoxypyrimidin-5-yl)-4-oxo-3-phenyl-3,4-dihydroquinazolin-2-yl)-4-hydroxypyrrolidin-1-yl)-6-methylpyrimidine-5-carbonitrile], 8.05; under `Cn1cc(-c2c(F)ccc3nc([C@@H]4C[C@H](O)CN4c4ncnc(N)c4C#N)n(-c4ccccc4)c(=O)c23)cn1` [Example 8, 4-Amino-6-((2S,4S)-2-(6-fluoro-5-(1-methyl-1H-pyrazol-4-yl)-4-oxo-3-phenyl-3,4-dihydroquinazolin-2-yl)-4-hydroxypyrrolidin-1-yl) pyrimidine-5-carbonitrile], 8.22.
With `COc1ncc(-c2c(F)ccc3nc([C@@H]4C[C@H](O)CN4c4nc(N)nc(C)c4C#N)n(-c4ccccc4)c(=O)c23)s1` [Example 9, 2-Amino-4-((2S,4S)-2-(6-fluoro-5-(2-methoxythiazol-5-yl)-4-oxo-3-phenyl-3,4-dihydroquinazolin-2-yl)-4-hydroxypyrrolidin-1-yl)-6-methylpyrimidine-5-carbonitrile], the pIC50 is over 8.52.
The value for `CO[C@H]1C[C@@H](c2nc3cccc(-c4cnn(C)c4)c3c(=O)n2-c2ccccc2)N(c2nc(N)nc(C)c2C#N)C1` [Example 10, 2-Amino-4-((2S,4S)-4-methoxy-2-(5-(1-methyl-1H-pyrazol-4-yl)-4-oxo-3-phenyl-3,4-dihydroquinazolin-2-yl)pyrrolidin-1-yl)-6-methylpyrimidine-5-carbonitrile] was 7.22.
Under `CO[C@H]1C[C@@H](c2nc3cccc(-c4cnn(C)c4)c3c(=O)n2-c2ccccc2)N(c2nc(N)nc3[nH]cnc23)C1` [Example 11, 2-((2S,4S)-1-(2-Amino-9H-purin-6-yl)-4-methoxypyrrolidin-2-yl)-5-(1-methyl-1H-pyrazol-4-yl)-3-phenylquinazolin-4(3H)-one] stands 6.18; under `COc1ncc(-c2cccc3nc([C@@H]4C[C@H](OC)CN4c4nc(N)nc(C)c4C#N)n(-c4ccccc4)c(=O)c23)cn1` [Example 12, 2-Amino-4-((2S,4S)-4-methoxy-2-(5-(2-methoxypyrimidin-5-yl)-4-oxo-3-phenyl-3,4-dihydroquinazolin-2-yl)pyrrolidin-1-yl)-6-methylpyrimidine-5-carbonitrile], 7.55.
Under `Cc1nc(N)nc(N2CCC[C@H]2c2nc3cccc(-c4cnn(C)c4)c3c(=O)n2-c2ccccc2)c1C#N` [Example 13, (S)-2-Amino-4-methyl-6-(2-(5-(1-methyl-1H-pyrazol-4-yl)-4-oxo-3-phenyl-3,4-dihydroquinazolin-2-yl)pyrrolidin-1-yl)pyrimidine-5-carbonitrile] stands 7.92; under `Cc1ccccc1-n1c([C@@H]2CCCN2c2ncnc(N)c2C#N)nc2cccc(-c3cnn(C)c3)c2c1=O` [Example 14, (S)-4-Amino-6-(2-(5-(1-methyl-1H-pyrazol-4-yl)-4-oxo-3-(otolyl)-3,4-dihydroquinazolin-2-yl)pyrrolidin-1-yl)pyrimidine-5-carbonitrile], 8.10; under `Cn1cnc(-c2cccc3nc([C@@H]4CCCN4c4ncnc(N)c4C#N)n(-c4ccccc4)c(=O)c23)c1` [Example 15, (S)-4-Amino-6-(2-(5-(1-methyl-1H-imidazol-4-yl)-4-oxo-3-phenyl-3,4-dihydroquinazolin-2-yl)pyrrolidin-1-yl)pyrimidine-5-carbonitrile], 5.27.
For `Cc1nc(N)nc(N2C[C@@H](O)C[C@H]2c2nc3cccc(-c4cnn(C)c4)c3c(=O)n2-c2ccccc2)c1C#N` [Example 16, 2-Amino-4-((2S,4S)-4-hydroxy-2-(5-(1-methyl-1H-pyrazol-4-yl)-4-oxo-3-phenyl-3,4-dihydroquinazolin-2-yl)pyrrolidin-1-yl)-6-methylpyrimidine-5-carbonitrile], the pIC50 was 8.10.
Under `Cc1nc(N)nc(N2CCC[C@H]2c2nc3cccc(-c4cncnc4)c3c(=O)n2-c2ccccc2)c1C#N` [Example 17, (S)-2-Amino-4-methyl-6-(2-(4-oxo-3-phenyl-5-(pyrimidin-5-yl)-3,4-dihydroquinazolin-2-yl)pyrrolidin-1-yl)pyrimidine-5-carbonitrile] stands over 8.52; under `COc1cncc(-c2cccc3nc([C@@H]4CCCN4c4nc(N)nc(C)c4C#N)n(-c4ccccc4)c(=O)c23)c1` [Example 18, (S)-2-Amino-4-(2-(5-(5-methoxypyridin-3-yl)-4-oxo-3-phenyl-3,4-dihydroquinazolin-2-yl)pyrrolidin-1-yl)-6-methylpyrimidine-5-carbonitrile], over 8.52; under `Cc1ncc(-c2cccc3nc([C@@H]4CCCN4c4nc(N)nc(C)c4C#N)n(-c4ccccc4)c(=O)c23)cn1` [Example 19, (S)-2-Amino-4-methyl-6-(2-(5-(2-methylpyrimidin-5-yl)-4-oxo-3-phenyl-3,4-dihydroquinazolin-2-yl)pyrrolidin-1-yl)pyrimidine-5-carbonitrile], over 8.52.
The value for `Cc1nc(N)nc(N2CCC[C@H]2c2nc3cccc(-c4cccnc4)c3c(=O)n2-c2ccccc2)c1C#N` [Example 20, (S)-2-Amino-4-methyl-6-(2-(4-oxo-3-phenyl-5-(pyridin-3-yl)-3,4-dihydroquinazolin-2-yl)pyrrolidin-1-yl)pyrimidine-5-carbonitrile] was over 8.52.
